Literature values in article PMC7982506 (Acta Pharmaceutica Sinica. B, 2020).
One block for each compound: values may come before it.

Legend:
[1] = molecular target: T1, SHP2-PTP (Homo sapiens, UniProt Q06124); conditions: read-out: IC50 reported previously
T1 sequence (Q06124 237-535): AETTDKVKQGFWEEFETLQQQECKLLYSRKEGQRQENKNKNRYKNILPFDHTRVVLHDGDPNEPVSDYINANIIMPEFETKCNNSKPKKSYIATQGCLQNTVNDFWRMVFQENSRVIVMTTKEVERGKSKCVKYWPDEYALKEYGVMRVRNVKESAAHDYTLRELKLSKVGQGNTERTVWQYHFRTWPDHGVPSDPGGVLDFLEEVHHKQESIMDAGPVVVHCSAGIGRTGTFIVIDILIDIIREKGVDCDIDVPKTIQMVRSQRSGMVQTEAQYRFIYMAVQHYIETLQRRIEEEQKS

[2] = system: p-ERK; conditions: versus SHP099
[3] = system: cell growth; conditions: versus SHP099
[4] = molecular target: T2, SHP2-WT (Homo sapiens, UniProt Q06124); conditions: read-out: EC50 of p-IRS1 peptide for SHP2-WT, previously reported
T2 sequence (Q06124 1-535): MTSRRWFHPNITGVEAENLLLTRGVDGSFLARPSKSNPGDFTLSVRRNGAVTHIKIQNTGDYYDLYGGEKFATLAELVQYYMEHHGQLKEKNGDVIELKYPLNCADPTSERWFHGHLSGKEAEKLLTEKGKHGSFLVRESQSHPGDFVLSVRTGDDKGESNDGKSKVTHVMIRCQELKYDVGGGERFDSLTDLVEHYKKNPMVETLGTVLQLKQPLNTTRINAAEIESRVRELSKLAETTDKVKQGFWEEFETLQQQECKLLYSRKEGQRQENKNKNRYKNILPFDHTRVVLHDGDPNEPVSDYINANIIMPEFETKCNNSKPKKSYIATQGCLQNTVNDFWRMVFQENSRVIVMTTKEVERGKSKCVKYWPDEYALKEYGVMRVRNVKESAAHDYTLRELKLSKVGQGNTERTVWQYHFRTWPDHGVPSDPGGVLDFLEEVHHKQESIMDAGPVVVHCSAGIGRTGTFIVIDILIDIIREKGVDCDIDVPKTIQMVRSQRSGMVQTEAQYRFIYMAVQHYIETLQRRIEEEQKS

IC50 [1]: 10 µM
Compound: [Na+].[Na+].[Na+].[O]=[V]([O-])([O-])[O-] [Na3VO4]

Compound: Cc1ncsc1-c1ccc([C@H](C)NC(=O)[C@@H]2C[C@@H](O)CN2C(=O)[C@@H](NC(=O)CCCCCCCCN2CCN(C(=O)CCC(=O)Nc3cccc(Sc4ncc(N5CCC(C)(N)CC5)nc4N)c3Cl)CC2)C(C)(C)C)cc1 [SHP2-D26]
fold more potent than SHP099 in inhibition of p-ERK [2]: 30 fold
fold more potent than SHP099 in inhibition of cell growth [3]: 30 fold

EC50 [4]: 0.25 µM
Compound: H2N-LN(pY)IDLDLV(dPEG8)LST(pY)ASINFQK-amide [p-IRS1 peptide]
